Test results taken from patent US8497281B2, “Aryl- and heteroarylcarbonyl derivatives of hexahydroindenopyridine and octahydrobenzoquinoline” (Vitae Pharmaceuticals, Inc., priority 2009, dated 2013).

assay: Metabolic stability in pooled liver microsomes; format: in vitro ADME, human; details: human liver microsomes, 37° C., test compound 1 μM, microsomal protein 0.5 mg/mL, NADPH 1 mM
Method: The metabolic degradation of the test compound is assayed at 37° C. with pooled liver microsomes from various species. The final incubation volume of 100 μl per time point contains TRIS buffer pH 7.6 at room temperature (0.1 M), magnesium chloride (5 mM), microsomal protein (0.5 mg/mL) and the test compound at a final concentration of 1 μM. Following a short preincubation period at 37° C., the reactions are initiated by addition of beta-nicotinamide adenine dinucleotide phosphate, reduced form (NADPH, 1 mM), and terminated by transferring an aliquot into solvent after different time points. After centrifugation (10000 g, 5 min), an aliquot of the supernatant is assayed by LC-MS/MS for the amount of parent compound. The half-life is determined by the slope of the semi-logarithmic plot of the concentration-time profile.

Row | SMILES | Stability in human liver microsomes, t1/2
1 | O=C(c1ccc2[nH]cnc2c1)N1CCC[C@@H]2c3ccccc3CC[C@@H]21 (relative stereo) [Example 1, (1H-Benzoimidazol-5-yl)-(cis-2,3,4a,5,6,10b-hexahydro-1H-benzo[f]quinolin-4-yl)-methanone] | >1.5 h
2 | O=C(c1ccc2[nH]cnc2c1)N1CCC[C@@H]2c3ccccc3CC[C@@H]21 [Example 2, (1H-Benzoimidazol-5-yl)-[(4a-S,10b-R)-2,3,4a,5,6,10b-hexahydro-1H-benzo[l]quinolin-4-yl]-methanone] | 0.483 h

same assay, conditions: human, pooled liver microsomes, pH 7.6, human liver microsomes, 37° C., test compound 1 μM, microsomal protein 0.5 mg/mL, NADPH 1 mM; read-out: Stability in human liver microsomes, t1/2

Row | SMILES | half-life at 1 μM
3 | C[C@]12CCCN(C(=O)c3ccc4[nH]cnc4c3)[C@H]1CCc1ccccc12 (relative stereo) [Example 10, (1H-Benzoimidazol-5-yl)-(cis-10b-methyl-2,3,4a,5,6,10b-hexahydro-1H-benzo[f]quinolin-4-yl)-methanone] | > 0.75 h
4 | C[C@]12CCCN(C(=O)c3ccc4[nH]cnc4c3)[C@@H]1CCc1ccccc12 (relative stereo) [Example 11, (1H-Benzoimidazol-5-yl)-(trans-10b-methyl-2,3,4a,5,6,10b-hexahydro-1H-benzo[t]quinolin-4-yl)-methanone] | 0.633 h
5 | O=C(c1ccc2[nH]cnc2c1)N1CCC[C@@H]2c3cc(F)cc(F)c3CC[C@@H]21 (relative stereo) [Example 20, (1H-Benzoimidazol-5-yl)-(cis-7,9-difluoro-2,3,4a,5,6,10b-hexahydro-1H-benzo[f]quinolin-4-yl)-methanone] | > 1.5 h
6 | NC(=O)c1ccc2c(c1)CC[C@H]1[C@@H]2CCCN1C(=O)c1ccc2[nH]cnc2c1 (relative stereo) [Example 37, cis-4-(1H-Benzoimidazole-5-carbonyl)-1,2,3,4,4a,5,6,10b-octahydro-benzo[f]quinoline-8-carboxylic acid amide] | > 1.5 h
7 | N#Cc1ccc2c(c1)CC[C@H]1[C@@H]2CCCN1C(=O)c1ccc2[nH]cnc2c1 (relative stereo) [Example 42, cis-4-(1H-Benzoimidazole-5-carbonyl)-1,2,3,4,4a,5,6,10b-octahydro-benzo[f]quinoline-8-carbonitrile] | > 1.5 h
8 | N#Cc1ccc2c(c1)[C@H]1CCCN(C(=O)c3ccc4[nH]cnc4c3)[C@H]1CC2 (relative stereo) [Example 91, cis-4-(1H-Benzoimidazole-5-carbonyl)-1,2,3,4,4a,5,6,10b-octahydro-benzo[f]quinoline-9-carbonitrile] | > 1.5 h
9 | O=C(c1ccc2[nH]cnc2c1)N1CCC[C@@H]2c3ccccc3C[C@@H]21 (relative stereo) [Example 93, (1H-Benzoimidazol-5-yl)-(cis-2,3,4,4a,9,9a-hexahydro-indeno[2,1-b]pyridin-1-yl)-methanone] | > 1.5 h
10 | CC[C@]12CCCN(C(=O)c3ccc4[nH]cnc4c3)[C@@H]1CCc1ccccc12 (relative stereo) [Example 105, (1H-Benzoimidazol-5-yl)-(trans-10b-ethyl-2,3,4a,5,6,10b-hexahydro-1H-benzo[f]quinolin-4-yl)-methanone] | 0.367 h
11 | N#Cc1ccc2c(c1)[C@H]1CCCN(C(=O)c3ccc4[nH]cnc4c3)[C@H]1C2 (relative stereo) [Example 106, cis-1-(1H-Benzoimidazole-5-carbonyl)-2,3,4,4a,9,9a-hexahydro-1H-indeno[2,1-b]pyridine-6-carbonitrile] | > 1.5 h
12 | C#Cc1ccc2c(c1)[C@H]1CCCN(C(=O)c3ccc4[nH]cnc4c3)[C@H]1C2 (relative stereo) [Example 155, (1H-Benzoimidazol-5-yl)-(cis-6-ethynyl-2,3,4,4a,9,9a-hexahydro-indeno[2,1-b]pyridin-1-yl)-methanone] | 0.467 h
13 | N#Cc1ccc2c(c1)[C@H]1CCCN(C(=O)c3ccc4[nH]cnc4c3)[C@H]1C2 [Example 107, (4a-R,9a-S)-1-(1H-Benzoimidazole-5-carbonyl)-2,3,4,4a,9,9a-hexahydro-1H-indeno[2,1-b]pyridine-6-carbonitrile] | > 1.5 h
14 | N#Cc1ccc2c(c1)[C@@H]1CCCN(C(=O)c3ccc4[nH]cnc4c3)[C@@H]1C2 [Example 108, (4a-S,9a-R)-1-(1H-Benzoimidazole-5-carbonyl)-2,3,4,4a,9,9a-hexahydro-1H-indeno[2,1-b]pyridine-6-carbonitrile] | > 1.5 h
15 | C[C@H]1CCN(C(=O)c2ccc3[nH]cnc3c2)[C@H]2Cc3ccccc3[C@@H]12 [Example 146, (1H-Benzoimidazol-5-yl)-(cis-4-methyl-2,3,4,4a,9,9a-hexahydro-indeno[2,1-b]pyridin-1-yl)-methanone] | > 0.75 h
16 | N#Cc1ccc2c(c1)C[C@H]1[C@@H]2CCCN1C(=O)c1ccc2[nH]cnc2c1 [Example 148, (4a-R,9a-S)-1-(1H-Benzoimidazole-5-carbonyl)-2,3,4,4a,9,9a-hexahydro-1H-indeno[2,1-b]pyridine-7-carbonitrile] | > 1.5 h
17 | Cc1cc(C(=O)N2CCC[C@@H]3c4cc(C#N)ccc4C[C@@H]32)cc2nc[nH]c12 [Example 152, (4a-R,9a-S)-1-(7-Methyl-1H-benzoimidazole-5-carbonyl)-2,3,4,4a,9,9a-hexahydro-1H-indeno[2,1-b]pyridine-6-carbonitrile] | > 1.5 h
18 | Cc1cc2[nH]cnc2cc1C(=O)N1CCC[C@@H]2c3cc(C#N)ccc3C[C@@H]21 [Example 153, (4a-R,9a-S)-1-(6-Methyl-1H-benzoimidazole-5-carbonyl)-2,3,4,4a,9,9a-hexahydro-1H-indeno[2,1-b]pyridine-6-carbonitrile] | > 1.5 h
